Counter-ions that a name gives are not always drawn.
What was measured:
[1] = molecular target: CDK2/Cyclin A (Homo sapiens, UniProt P24941); experiment: Inhibition of CDK2/Cyclin A Retinoblastoma Kinase Activity; format: biochemical; settings: for Ki: apparent Ki, CDK2/proteolyzed cyclin A, Rb fragment substrate, 25 μM ATP; for inhibition at 0.05 µM: read-out: % inhibition of CDK2 (@ 0.05 μM), compound at 0.05 μM
Experimental: Cyclin-dependent kinase activity was measured by quantifying the enzyme-catalyzed, time-dependent incorporation of radioactive phosphate from [^32P]ATP or [^33P]ATP into a protein substrate. Unless noted otherwise, assays were performed in 96-well plates in a total volume of 50 μL, in the presence of 10 mM HEPES (N-[2-hydroxyethyl]piperazine-N′-[2-ethanesulfonic acid]) (pH 7.4), 10 mM MgCl2, 25 μM adenosine triphosphate (ATP), 1 mg/mL ovalbumin, 5 μg/mL leupeptin, 1 mM dithiothreitol, 10 mM β-glycerophosphate, 0.1 mM sodium vanadate, 1 mM sodium fluoride, 2.5 mM ethylene glycol-bis(β-aminoethyl ether)-N,N,N′N′-tetraacetic acid (EGTA), 2% (v/v) dimethylsulfoxide, and 0.03-0.4 μCi [^32/33P]ATP per reaction. Reactions were initiated with enzyme, incubated at 30° C., and terminated after 20 minutes by the addition of ethylenediaminetetraacetic acid (EDTA) to 250 mM. The phosphorylated substrate was then captured on a nitrocellulose or phosphocellulose membrane using a 96-well filtration manifold, and unincorporated radioactivity was removed by repeated washing with 0.85% phosphoric acid. Radioactivity was quantified by exposing the dried membranes to a phosphorimager.
Inhibition was measured relative to control wells that contained all reaction components including 2% (v/v) DMSO but no compound, after subtraction of background radioactivity measured in the absence of enzyme. Apparent Ki values of discrete compounds were measured by assaying enzyme activity in the presence of different inhibitor compound concentrations and subtracting the background radioactivity measured in the absence of enzyme. The kinetic parameters (kcat, Km for ATP) were measured for each enzyme under the usual assay conditions by determining the dependence of initial rates on ATP concentration. Inhibition data were fit to an equation for competitive inhibition using Kaleidagraph (Synergy Software), or were fit to an equation for competitive tight-binding inhibition using the software KineTic (BioKin, Ltd.).
Inhibition of CDK2/Cyclin A Retinoblastoma Kinase Activity:
CDK2 was purified using published methodology (Rosenblatt et al., “Purification and Crystallization of Human Cyclin-dependent Kinase 2,” J. Mol. Biol., vol. 230, 1993, pp. 1317-1319) from insect cells that had been infected with a baculovirus expression vector. […] A complex of CDK2 and proteolyzed cyclin A was prepared and purified by gel filtration. The substrate for this assay was the same Rb substrate fragment used for the CDK4 assays, and the methodology of the CDK2/delta cyclin A and the CDK4/delta cyclin D3 assays was essentially the same, except that CDK2 was present at 10 nM or 19 nM. The duration of the assay was 60 or 75 minutes, during which the time-dependence of product formation was linear and initial rate conditions were met. And, the percent inhibitions of the compounds of Example O through Example R were calculated as described above and shown in Table 2.

[2] = tested on: HCT-116 cell line; experiment: Inhibition of cell growth, tetrazolium salt (MTT) assay; format: cell-based; settings: Homo sapiens, MTT; for IC50: HCT-116, 120 h, first HCT-116 column (c4), three to five days, read-out: HCT-116 IC50; for inhibition at 0.175 µM: HCT-116, HCT-116 cells, compound at 0.175 uM
In short: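 HCT-116 cells in McCoy's 5A medium received compound 4 h after plating (0.5% v/v DMSO) and were incubated three to five days at 37° C, 5% CO2. MTT (0.2 mg/mL final) then added for 4 h; DMSO-solubilized formazan read at 540 nm against 0.5% DMSO-treated controls.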

| Ki [1] [nM] | IC50 [2] [nM] | inhibition at 0.05 µM [1] [%] | Compound | inhibition at 0.175 µM [2] [%] |
| --- | --- | --- | --- | --- |
| 4.7 | 70 |  | Nc1nc(NC2CCN(S(=O)(=O)CCCNCc3ccc(F)cc3)CC2)sc1C(=O)c1c(F)cccc1F [Example V182, (4-Amino-2-{[1-({3-[(4-fluorobenzyl)amino]propyl}sulfonyl)-4-piperidinyl]amino}-1,3-thiazol-5-yl)(2,6-difluorophenyl)methanone.] |  |
|  |  | 79 | CCC(O)CNCCCS(=O)(=O)N1CCC(Nc2nc(N)c(C(=O)c3c(F)cccc3F)s2)CC1 (stereo not shown) [Example V83] | 0 |
|  |  | 85 | Cc1c(CNCCCS(=O)(=O)N2CCC(Nc3nc(N)c(C(=O)c4c(F)cccc4F)s3)CC2)cnn1C [Example V173] | 0 |
|  |  | 87 | Nc1nc(NC2CCN(S(=O)(=O)CCCN3Cc4ccccc4C3)CC2)sc1C(=O)c1c(F)cccc1F [Example V155] | 11 |
|  |  | 82 | CN(CCC#N)CCCS(=O)(=O)N1CCC(Nc2nc(N)c(C(=O)c3c(F)cccc3F)s2)CC1 [Example V66] | 10 |
|  |  | 83 | Nc1nc(NC2CCN(S(=O)(=O)CCCNc3nccc4cccnc34)CC2)sc1C(=O)c1c(F)cccc1F [Example V145] | 0 |
|  |  | 88 | CN(CCCS(=O)(=O)N1CCC(Nc2nc(N)c(C(=O)c3c(F)cccc3F)s2)CC1)Cc1ccco1 [Example V82] | 60 |
|  |  | 87 | Nc1nc(NC2CCN(S(=O)(=O)CCCNCCc3ncn[nH]3)CC2)sc1C(=O)c1c(F)cccc1F [Example V150] | 18 |
|  |  | 17 | Nc1nc(NC2CCN(S(=O)(=O)CCCN3CCCC3)CC2)sc1C(=O)c1c(F)cccc1F [Example V64] | 0 |
|  |  | 79 | Nc1ncccc1CNCCCS(=O)(=O)N1CCC(Nc2nc(N)c(C(=O)c3c(F)cccc3F)s2)CC1 [Example V151] | 0 |
|  |  | 87 | CSCCNCCCS(=O)(=O)N1CCC(Nc2nc(N)c(C(=O)c3c(F)cccc3F)s2)CC1 [Example V128] | 25 |
| 3.6 | 60 |  | Cc1ccccc1CNCCCS(=O)(=O)N1CCC(Nc2nc(N)c(C(=O)c3c(F)cccc3F)s2)CC1 [Example V184, (4-Amino-2-{[1-({3-[(2-methylbenzyl)amino]propyl}sulfonyl)-4-piperidinyl]amino}-1,3-thiazol-5-yl)(2,6-difluorophenyl)methanone.] |  |
|  |  | 87 | Nc1nc(NC2CCN(S(=O)(=O)CCCNCC3(O)CCCCC3)CC2)sc1C(=O)c1c(F)cccc1F [Example V144] | 0 |
|  |  | 79 | Nc1nc(NC2CCN(S(=O)(=O)CCCNCCCCO)CC2)sc1C(=O)c1c(F)cccc1F [Example V90] | 21 |
|  |  | 90 | Nc1nc(NC2CCN(S(=O)(=O)CCCNCC3CCCCC3)CC2)sc1C(=O)c1c(F)cccc1F [Example V118] | 54 |
|  |  | 80 | NC(=O)[C@@H]1CCCN1CCCS(=O)(=O)N1CCC(Nc2nc(N)c(C(=O)c3c(F)cccc3F)s2)CC1 [Example V87] | 3 |
|  |  | 76 | Nc1nc(NC2CCN(S(=O)(=O)CCCNCc3ccc[nH]c3=O)CC2)sc1C(=O)c1c(F)cccc1F [Example V169] | 25 |
|  |  | 70 | CN(C)CCN(C)CCCS(=O)(=O)N1CCC(Nc2nc(N)c(C(=O)c3c(F)cccc3F)s2)CC1 [Example V95] | 3 |
|  |  | 90 | Nc1nc(NC2CCN(S(=O)(=O)CCCNC3CCCCC3)CC2)sc1C(=O)c1c(F)cccc1F [Example V72] | 14 |
| 6.5 | 60 |  | CN(CCCS(=O)(=O)N1CCC(Nc2nc(N)c(C(=O)c3c(F)cccc3F)s2)CC1)Cc1ccccc1 [Example V181, (4-Amino-2-{[1-({3-[benzyl(methyl)amino]propyl}sulfonyl)-4-piperidinyl]amino}-1,3-thiazol-5-yl)(2,6-difluorophenyl)methanone.] |  |
|  |  | 76 | Cc1ccc(CNCCCS(=O)(=O)N2CCC(Nc3nc(N)c(C(=O)c4c(F)cccc4F)s3)CC2)o1 [Example V123] | 5 |

More lines, now with the values behind:

| Compound | Ki [1] [nM] | IC50 [2] [nM] | inhibition at 0.05 µM [1] [%] | inhibition at 0.175 µM [2] [%] |
| --- | --- | --- | --- | --- |
| Nc1ccc(CNCCCS(=O)(=O)N2CCC(Nc3nc(N)c(C(=O)c4c(F)cccc4F)s3)CC2)cc1 [Example V47] |  |  | 85 | 13 |
| NC(=O)C1CCCN(CCCS(=O)(=O)N2CCC(Nc3nc(N)c(C(=O)c4c(F)cccc4F)s3)CC2)C1 (stereo not shown) [Example V16] |  |  | 80 | 5 |
| CC1(C)CCCN(CCCS(=O)(=O)N2CCC(Nc3nc(N)c(C(=O)c4c(F)cccc4F)s3)CC2)C1 [Example K60, {4-Amino-2-[(1-{[3-(3,3-dimethylpiperidin-1-yl)propyl]sulfonyl}piperidin-4-yl)amino]-1,3-thiazol-5-yl}(2,6-difluorophenyl)methanone] | 13 | 120 |  |  |
| CN(C)CCNCCCS(=O)(=O)N1CCC(Nc2nc(N)c(C(=O)c3c(F)cccc3F)s2)CC1 [Example V54] |  |  | 75 | 0 |
| Nc1nc(NC2CCN(S(=O)(=O)CCCN[C@H]3CC[C@H](O)CC3)CC2)sc1C(=O)c1c(F)cccc1F [Example V39] |  |  | 84 | 0 |
| Nc1nc(NC2CCN(S(=O)(=O)CCCN[C@@H]3CONC3=O)CC2)sc1C(=O)c1c(F)cccc1F [Example V21] |  |  | 86 | 10 |
| Nc1nc(NC2CCN(S(=O)(=O)CCCNC3CCOC3=O)CC2)sc1C(=O)c1c(F)cccc1F (stereo not shown) [Example V18] |  |  | 22 | 0 |
| CCN(CC)CCCNCCCS(=O)(=O)N1CCC(Nc2nc(N)c(C(=O)c3c(F)cccc3F)s2)CC1 [Example V14] |  |  | 75 | 18 |
| CC(=O)NC1CCN(CCCS(=O)(=O)N2CCC(Nc3nc(N)c(C(=O)c4c(F)cccc4F)s3)CC2)C1 (stereo not shown) [Example V41] |  |  | 71 | 14 |
| C[C@@H](NCCC(=O)N1CCC(Nc2nc(N)c(C(=O)c3c(F)cccc3F)s2)CC1)c1ccccc1 [Example U1, Trifluoroacetic Acid Salt] | 20.7 | 910 |  |  |
| Nc1nc(NC2CCN(S(=O)(=O)CCCNC3CCC3)CC2)sc1C(=O)c1c(F)cccc1F [Example V63] |  |  | 78 | 13 |
| CN(CCCS(=O)(=O)N1CCC(Nc2nc(N)c(C(=O)c3c(F)cccc3F)s2)CC1)C1CCCCC1 [Example K61, (4-Amino-2-{1-[3-(cyclohexyl-methyl-amino)-propane-1-sulfonyl]-piperidin-4-ylamino}-thiazol-5-yl)-(2,6-difluoro-phenyl)-methanone. Acetic Acid Salt] | 8 | 170 |  |  |
| COC(=O)CNCCCS(=O)(=O)N1CCC(Nc2nc(N)c(C(=O)c3c(F)cccc3F)s2)CC1 [Example V50] |  |  | 81 | 0 |
| Nc1nc(NC2CCN(S(=O)(=O)CCCNCCc3ccccn3)CC2)sc1C(=O)c1c(F)cccc1F [Example V8] |  |  | 81 | 18 |
| CN1CCN(CCCS(=O)(=O)N2CCC(Nc3nc(N)c(C(=O)c4c(F)cccc4F)s3)CC2)CC1 [Example V35] |  |  | 72 | 17 |
| Nc1nc(NC2CCN(S(=O)(=O)CCCNCc3ccccc3)CC2)sc1C(=O)c1c(F)cccc1F [Example V12] |  |  | 93 | 69 |
| Nc1nc(NC2CCN(S(=O)(=O)CCCN3CCCC(CO)C3)CC2)sc1C(=O)c1c(F)cccc1F (stereo not shown) [Example V36] |  |  | 50 | 8 |

— patent US20050101595A1, “N-containing cycloalkyl-substituted amino-thiazole derivatives and pharmaceutical compositions for inhibiting cell proliferation and methods for their use” (PFIZER INC., priority 2003, published 2005)
